≈ marks a conversion by molar mass, not a printed value.
Experiments:
Experiment in all cases: In vitro antibacterial activity, minimum inhibitory concentration
Type in all cases: cell-based
S.Faecalis ATCC29212 = conditions: Enterococcus faecalis
Text: (§1) As reference compounds, Cefotaxime (CTX), Ceftazidime (CAZ) and Cefpirome (CPR) were employed.

E.coli ATCC10536 = conditions: Escherichia coli; E.coli ATCC10536; read-out: Minimum Inhibitory Concentration (MIC)
Text: as §1

E.cloacae C4009 = conditions: Enterobacter cloacae; E.cloacae C4009; read-out: Minimum Inhibitory Concentration (MIC)
Text: as §1

S.typhimurium C4045 = conditions: Salmonella enterica; S.typhimurium C4045; read-out: Minimum Inhibitory Concentration (MIC)
Text: as §1

E.cloacae C4008 = conditions: Enterobacter cloacae; E.cloacae C4008; read-out: Minimum Inhibitory Concentration (MIC)
Text: as §1

S.pyogenes ATCC 8668 = conditions: Streptococcus pyogenes, ATCC8668; S.pyogenes ATCC 8668; read-out: Minimum Inhibitory Concentration (MIC)
Text: as §1

MRSA C2208 = conditions: Staphylococcus aureus; MRSA C2208; read-out: Minimum Inhibitory Concentration (MIC)
Text: as §1

S.pyogenes C4003 = conditions: Streptococcus pyogenes; S.pyogenes C4003; read-out: Minimum Inhibitory Concentration (MIC)
Text: as §1

P.aeruginosa C4070 = conditions: Pseudomonas aeruginosa; P.aeruginosa C4070; read-out: Minimum Inhibitory Concentration (MIC)
Text: as §1

E.coli C4002 = conditions: Escherichia coli; E.coli C4002; read-out: Minimum Inhibitory Concentration (MIC)
Text: as §1

K.oxytoca C4022 = conditions: Klebsiella oxytoca; K.oxytoca C4022; read-out: Minimum Inhibitory Concentration (MIC)
Text: as §1

S.marcescens C1052 = conditions: Serratia marcescens; S.marcescens C1052; read-out: Minimum Inhibitory Concentration (MIC)
Text: as §1

P.rettgeri ATCC9919 = conditions: Providencia rettgeri; P.rettgeri ATCC9919; read-out: Minimum Inhibitory Concentration (MIC)
Text: as §1

P.aeruginosa ATCC27853 = conditions: Pseudomonas aeruginosa; P.aeruginosa ATCC27853; read-out: Minimum Inhibitory Concentration (MIC)
Text: as §1

S.aureus ATCC29213 = conditions: Staphylococcus aureus; S.aureus ATCC29213; read-out: Minimum Inhibitory Concentration (MIC)
Text: as §1

E.coli ATCC25922 = conditions: Escherichia coli; E.coli ATCC25922; read-out: Minimum Inhibitory Concentration (MIC)
Text: as §1

P.mirabilis ATCC25933 = conditions: Proteus mirabilis; P.mirabilis ATCC25933; read-out: Minimum Inhibitory Concentration (MIC)
Text: as §1

P.aeruginosa ATCC10145 = conditions: Pseudomonas aeruginosa; P.aeruginosa ATCC10145; read-out: Minimum Inhibitory Concentration (MIC)
Text: as §1

S.marcescens ATCC27117 = conditions: Serratia marcescens; S.marcescens ATCC27117; read-out: Minimum Inhibitory Concentration (MIC)
Text: as §1

S.aureus Smith = conditions: Staphylococcus aureus; S.aureus Smith; read-out: Minimum Inhibitory Concentration (MIC)
Text: as §1

K.pneumoniae ATCC10031 = conditions: Klebsiella pneumoniae; K.pneumoniae ATCC10031; read-out: Minimum Inhibitory Concentration (MIC)
Text: as §1

S.epidermidis ATCC12228 = conditions: Staphylococcus epidermidis; S.epidermidis ATCC12228; read-out: Minimum Inhibitory Concentration (MIC)
Text: as §1

K.pneumoniae C1040 = conditions: Klebsiella pneumoniae; K.pneumoniae C1040; read-out: Minimum Inhibitory Concentration (MIC)
Text: as §1

S.aureus C4036 = conditions: Staphylococcus aureus; S.aureus C4036; read-out: Minimum Inhibitory Concentration (MIC)
Text: as §1

P.aeruginosa C2027 = conditions: Pseudomonas aeruginosa; P.aeruginosa C2027; read-out: Minimum Inhibitory Concentration (MIC)
Text: as §1

Row | MIC (S.Faecalis ATCC29212) [µg/mL] | MIC (E.coli ATCC10536) [µg/mL] | MIC (E.cloacae C4009) [µg/mL] | MIC (S.typhimurium C4045) [µg/mL] | MIC (E.cloacae C4008) [µg/mL] | MIC (S.pyogenes ATCC 8668) [µg/mL] | MIC (MRSA C2208) [µg/mL] | MIC (S.pyogenes C4003) [µg/mL] | MIC (P.aeruginosa C4070) [µg/mL] | MIC (E.coli C4002) [µg/mL] | MIC (K.oxytoca C4022) [µg/mL] | MIC (S.marcescens C1052) [µg/mL] | MIC (P.rettgeri ATCC9919) [µg/mL] | MIC (P.aeruginosa ATCC27853) [µg/mL] | MIC (S.aureus ATCC29213) [µg/mL] | MIC (E.coli ATCC25922) [µg/mL] | MIC (P.mirabilis ATCC25933) [µg/mL] | MIC (P.aeruginosa ATCC10145) [µg/mL] | MIC (S.marcescens ATCC27117) [µg/mL] | MIC (S.aureus Smith) [µg/mL] | Compound | also measured
1 | > 100 | 0.05 (≈ 0.0872 µM) | 0.2 (≈ 0.349 µM) | 0.1 (≈ 0.174 µM) | 0.05 (≈ 0.0872 µM) | 0.007 (≈ 0.0122 µM) | > 100 | 0.007 (≈ 0.0122 µM) | > 100 | 0.1 (≈ 0.174 µM) | 6.25 (≈ 10.9 µM) | 0.2 (≈ 0.349 µM) | 0.013 (≈ 0.0227 µM) | 50 (≈ 87.2 µM) | 1.56 (≈ 2.72 µM) | 0.1 (≈ 0.174 µM) | 0.1 (≈ 0.174 µM) | 50 (≈ 87.2 µM) | 0.1 (≈ 0.174 µM) | 0.78 (≈ 1.36 µM) | CO/N=C(\C(=O)N[C@@H]1C(=O)N2C(C(=O)[O-])=C(C[n+]3ccc4c(c3)NC(=C[N+](=O)[O-])N4)CS[C@H]12)c1csc(N)n1 [Ex. 1] | MIC (K.pneumoniae ATCC10031): 0.025 µg/mL (≈ 0.0436 µM); MIC (S.epidermidis ATCC12228): 0.78 µg/mL (≈ 1.36 µM); MIC (K.pneumoniae C1040): 0.025 µg/mL (≈ 0.0436 µM); MIC (S.aureus C4036): 1.56 µg/mL (≈ 2.72 µM); MIC (P.aeruginosa C2027): 6.25 µg/mL (≈ 10.9 µM)
2 | > 100 | 0.05 (≈ 0.09 µM) | 0.05 (≈ 0.09 µM) | 0.05 (≈ 0.09 µM) | 0.05 (≈ 0.09 µM) | 0.007 (≈ 0.0126 µM) | > 100 | 0.007 (≈ 0.0126 µM) | 12.5 (≈ 22.5 µM) | 0.1 (≈ 0.18 µM) | 12.5 (≈ 22.5 µM) | 0.05 (≈ 0.09 µM) | 0.013 (≈ 0.0234 µM) | 25 (≈ 45 µM) | 3.13 (≈ 5.63 µM) | 0.1 (≈ 0.18 µM) | 0.025 (≈ 0.045 µM) | 12.5 (≈ 22.5 µM) | 0.05 (≈ 0.09 µM) | 3.13 (≈ 5.63 µM) | CO/N=C(\C(=O)N[C@@H]1C(=O)N2C(C(=O)[O-])=C(C[n+]3ccc4[nH]c(=NC#N)[nH]c4c3)CS[C@H]12)c1nsc(N)n1 [Ex. 4, 7-β-[(Z)-2-(5-Amino-1,2,4-thiadiazol-3-yl)-2-methoxyiminoacetamido]-3-[2-(1H,3H)-cyanoimine-imidazo[4,5-c]pyridiniummethyl]-3-cephem-4-carboxylate] | MIC (K.pneumoniae ATCC10031): 0.013 µg/mL (≈ 0.0234 µM); MIC (S.epidermidis ATCC12228): 1.56 µg/mL (≈ 2.81 µM); MIC (K.pneumoniae C1040): 0.025 µg/mL (≈ 0.045 µM); MIC (S.aureus C4036): 3.13 µg/mL (≈ 5.63 µM); MIC (P.aeruginosa C2027): 6.25 µg/mL (≈ 11.2 µM)
3 | > 100 | 0.007 (≈ 0.0127 µM) | 0.013 (≈ 0.0237 µM) | 0.007 (≈ 0.0127 µM) | 0.013 (≈ 0.0237 µM) | 0.007 (≈ 0.0127 µM) | > 100 | 0.007 (≈ 0.0127 µM) | 3.13 (≈ 5.7 µM) | 0.004 (≈ 0.00728 µM) | 1.56 (≈ 2.84 µM) | 0.004 (≈ 0.00728 µM) | 0.004 (≈ 0.00728 µM) | 0.78 (≈ 1.42 µM) | 1.56 (≈ 2.84 µM) | 0.026 (≈ 0.0473 µM) | 0.025 (≈ 0.0455 µM) | 1.56 (≈ 2.84 µM) | 0.007 (≈ 0.0127 µM) | 1.56 (≈ 2.84 µM) | Nc1nc(/C(=N/OCF)C(=O)N[C@@H]2C(=O)N3C(C(=O)[O-])=C(C[n+]4ccc5[nH]c(=O)[nH]c5c4)CS[C@H]23)ns1 [Ex. 9, 7-β-[(Z)-2-(5-Amino-1,2,4-thiadiazol-3-yl)-2-fluoromethoxyiminoacetamido]-3-[2-(1H, 3H)-oxo-imidazo[4,5-c]pyridiniummethyl]-3-cephem-4-carboxylate] | MIC (K.pneumoniae ATCC10031): 0.002 µg/mL (≈ 0.00364 µM); MIC (S.epidermidis ATCC12228): 0.78 µg/mL (≈ 1.42 µM); MIC (K.pneumoniae C1040): 0.004 µg/mL (≈ 0.00728 µM); MIC (S.aureus C4036): 3.13 µg/mL (≈ 5.7 µM); MIC (P.aeruginosa C2027): 0.78 µg/mL (≈ 1.42 µM)
